From PMC10964233, “Antigen-Mimic Nanoparticles in Ultrasensitive on-Chip Integrated Anti-p53 Antibody Quantification” (ACS Sensors, 2024)

Columns and labels:
[1] = test system: Con A-modified electrode interfaces; experiment: Antibody selectivity of Con A-modified electrode interfaces; format: binding; conditions: 1.0 mg/mL nonspecific protein; Figure S7
[2] = test system: DO-1 peptide/HRP-IONPs with Con A-modified SPCEs; experiment: Assay specificity (SWV responses of interferents); conditions: equivalent MAC immunoisolation conditions, Figure S17
Method: Following a 10 min incubation of the antibody–IONP immunocomplexes on Con A-modified SPCEs, and subsequent washing with PBS, 100 μL of the high-sensitivity TMB substrate was added and left to react for 5 min. Square-wave voltammetry (SWV) scans were then conducted from +1.0 to −0.5 V (vs Ag/AgCl), at an amplitude of 20 mV, a potential step of 2 mV, and a frequency of 50 Hz. […] Recovery assays were conducted using DO-1 antibodies spiked into 1.0 mg/mL BSA or 1.0% human serum (human male AB plasma, Sigma, UK).
To evaluate the performance in spiked samples, recovery tests were performed in 1.0 mg/mL BSA and diluted human serum.

Concanavalin A = experiment: SPR + other: electrochemical impedance spectroscopy; SPR at Con A-saturated gold chips with a BSA-saturated surface as reference (298 K, 30 uL/min, 10 mM PBS pH 7.4); EIS at Con A-modified SPCEs in 5 mM [Fe(CN)6]3-/4- PBS pH 7.4; both responses fitted to Langmuir-Freundlich isotherms, Kd from the plot mean

With bovine serum albumin [BSA] the “Response at Con A interface relative to DO-1 antibody” value [1] was < 10% and the “Voltammetric response relative to 50 ng/mL DO-1 antibody” value ([2]; 1.0 mg/mL) was < 10%.
In the case of immunoglobulin G, the “Voltammetric response relative to 50 ng/mL DO-1 antibody” value ([2]; 10.0 μg/mL (antibody control)) is reported as < 10%.
Work on monoclonal DO-1 antibody yielded a Kd (Concanavalin A) of 13.6 nM.
